This note sets out measurements from EP1655027A1, “9-(N-methyl-piperidyliden-4)-thioxanthene for treatment of pulmonary hypertension and migraine” (Biofrontera Pharmaceuticals GmbH, priority 2004, dated 2006).

Test [1] has as its system plasma protein extravasation. Nature of the test: mCPP model in guinea pigs: plasma protein extravasation in the dura mater (EvansBlue). In kind it is in vivo. To be noted: for plasma protein extravasation as EvansBlue extinction at 600nm: 2 minutes before 1µg/kg mCPP, guinea pigs. As for the experimental part: Functional test of Pimethixene in the mCPP model in guinea pigs.
In accordance to the protocol published by Markowitz et. al; (1987) and Olesen et. al; (2000), guinea pigs were used to determine the amount of plasma protein released at the blood vessels within the Dura mater after mCPP application. […] 2 minutes later 1µg/kg body weight mCPP were injected and followed by the i.v. application of EvansBlue as marker for the protein plasma extravasation. 15 minutes later animals were transcranial perfused and decapitated. A,defined area of the dura mater was isolated and transferred into an eppendorf tube containing 200µl formamid. Because EvansBlue binds to plasma protein, the amount of bound marker dye is a measure of extravasation of plasma protein. Formamid dissolves EvansBlue from the protein which can be colorimetric detected and quantified at 600 nm. Table 2: Determination of plasma protein extravasation as EvansBlue extinction at 600nm.

Test [2] deals with T1, human Histamine H4 receptor (Homo sapiens, UniProt Q9H3N8).
T1 construct: expressed in transfected cells
Kind of test: Cloned human H4 receptor binding assay, [3H]-pyramilamine. The method, then: (§1) CHO cells were stably transfected with an expression plasmid pCineohH1, pCineohH2, pCineohH3 and pCineohH4 encoding the human Histamine H1, H2, H3 or H4 receptor, respectively. Recombinant cell lines were harvested after confluent growth, homogenized in ice-cold 50 mM Na2/potassium phosphate buffer (pH 7.4) and used for radioligand binding studies. Cell homogenates (40 - 50 µg of protein) were incubated for 30 min at 25°C in 50 mM Na2/potassium phosphate buffer (pH 7.4) in 400 µl with the various concentrations of either [^3H]-mepyramine, [^3H]-thiotidine, [^3H]-R-α-Methylhistamine, and [^3H]-pyramilamine for cells expressing recombinant human H1, H2, H3 and H4 receptors, respectively. The nonspecific binding was defined in the presence of 1 µM mianserin. In displacement studies, cell homogenated were incubated either with 1 nM [^3H]-mepyramine, 15 nM [^3H]-thiotidine, 0.5 nM [^3H]-R-α-Methylhistamine, or 15 nM [^3H]-pyramilamine and increasing concentrations of competing ligands. The incubations were stopped by rapid dilution with 3 ml of ice-cold 50 mM Na2/potassium phosphate buffer (pH 7.4). The bound radioactivity was seperated by filatration through Whatman GF/C filters that had been treated with 0.3 % polyethyleneimine. Filters were washed twice in 3 ml of buffer and radioactivity retained on the filters was measured by liquid scinitllation counting. […]

For the next test, the target named is T2, human H1 receptor (Homo sapiens, UniProt P35367).
T2 construct: expressed in transfected cells
Nature of the test: Cloned human H1 receptor binding assay, [3H]-mepyramine. As for the experimental part: as §1

In a further test the target is human 5-HT2B receptor (Homo sapiens, UniProt P41595). Nature of the test: Cloned human 5-HT2B receptor binding assay, [3H]-5HT.
Another test addresses T3, M1 muscarinic receptor (Homo sapiens, UniProt P11229).
T3 sequence (P11229 1-460): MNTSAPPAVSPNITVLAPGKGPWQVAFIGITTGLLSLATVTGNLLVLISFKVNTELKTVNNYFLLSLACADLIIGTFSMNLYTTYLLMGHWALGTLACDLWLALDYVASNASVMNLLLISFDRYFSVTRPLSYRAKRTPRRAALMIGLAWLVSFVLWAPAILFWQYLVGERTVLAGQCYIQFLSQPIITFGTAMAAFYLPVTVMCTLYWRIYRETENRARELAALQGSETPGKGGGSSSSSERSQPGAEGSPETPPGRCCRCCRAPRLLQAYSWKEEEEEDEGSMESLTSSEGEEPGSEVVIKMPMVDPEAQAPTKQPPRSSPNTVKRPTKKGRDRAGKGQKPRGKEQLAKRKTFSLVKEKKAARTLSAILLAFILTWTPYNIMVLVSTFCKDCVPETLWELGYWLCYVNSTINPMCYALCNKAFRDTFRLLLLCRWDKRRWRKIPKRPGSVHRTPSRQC
Nature of the test: Receptor affinity, M1 (acetylcholine as agonist). The class given is binding. The conditions noted are these: read-out: pKi values (converted). The method, then: (§2) Summary of pKi values of Pimethixene for the respective receptor subtypes. pKi values were calculated using the equation of Cheng and Prusoff {pKi = -log (IC50/[1+ used concentration of Agonist/EC50])}.EC80 values were calculated from corresponding dose-response experiment using 5-HT, histamine, epinephrine (alpha 1A adrenergic receptor), dopamine (D2 dopaminergic receptor), and acetylcholine (M1 muscarinic receptor) as agonists.

Test [3] has as its target T4, human Histamine H2 receptor (Homo sapiens, UniProt P25021).
T4 construct: expressed in transfected cells
Nature of the test: Cloned human H2 receptor binding assay, [3H]-thiotidine. The method, then: as §1

The next test addresses D2 dopaminergic receptor (Homo sapiens, UniProt P14416). Nature of the test: Receptor affinity, D2 (dopamine as agonist). In kind it is binding. To be noted: read-out: pKi values (converted). As for the experimental part:
as §2

Another test concerns the target T5, 5-HT2A receptor (Homo sapiens, UniProt P28223).
T5 construct: expressed in transfected cells; host or cells: HEK293
Nature of the test: 5-HT2A receptor binding method, [3H]ketanserin. To be noted: read-out: pKi values (converted).

Test [4] concerns the target T6, human Histamine H3 receptor (Homo sapiens, UniProt Q9Y5N1).
T6 construct: expressed in transfected cells
Nature of the test: Cloned human H3 receptor binding assay, [3H]-R-α-Methylhistamine. The method, then: as §1

In a further test the target is T7, 5-HT2C receptor (Homo sapiens, UniProt P28335).
T7 construct: expressed in transfected cells; host or cells: Cos-7
Kind of test: 5-HT2C receptor binding method, [3H]mesulergine. To be noted: read-out: pKi values (converted). As for the experimental part:
5-HT2C receptors were labelled in Cos-7 cells expressing the human 5-HT2C receptor and in NIH-3T3 expressing the rat 5-HT2C receptor.
Assays were conducted as described for the 5-HT2A receptor except that the radioligand was [^3H]mesulergine. […] .

Test [5] deals with T8, alpha 1A adrenergic receptor (Homo sapiens, UniProt P35348).
T8 sequence (P35348 1-466): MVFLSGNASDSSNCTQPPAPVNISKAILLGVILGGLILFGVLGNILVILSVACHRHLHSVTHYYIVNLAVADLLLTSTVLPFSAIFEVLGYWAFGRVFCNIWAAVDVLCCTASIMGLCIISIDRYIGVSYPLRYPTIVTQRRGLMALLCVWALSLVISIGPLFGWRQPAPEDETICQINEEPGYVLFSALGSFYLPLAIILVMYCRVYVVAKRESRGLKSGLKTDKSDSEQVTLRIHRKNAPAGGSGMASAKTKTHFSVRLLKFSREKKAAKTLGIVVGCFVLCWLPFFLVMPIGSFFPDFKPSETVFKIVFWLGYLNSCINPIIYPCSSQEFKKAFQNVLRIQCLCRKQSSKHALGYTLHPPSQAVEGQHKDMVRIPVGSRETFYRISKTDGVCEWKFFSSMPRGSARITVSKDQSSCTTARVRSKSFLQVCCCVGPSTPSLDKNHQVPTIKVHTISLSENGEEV
Nature of the test: Receptor affinity, Alpha 1A (epinephrine as agonist). In kind it is binding. The conditions noted are these: read-out: pKi values (converted). As for the experimental part: as §2

Chain of human 5-HT2B receptor (P41595 whole entry): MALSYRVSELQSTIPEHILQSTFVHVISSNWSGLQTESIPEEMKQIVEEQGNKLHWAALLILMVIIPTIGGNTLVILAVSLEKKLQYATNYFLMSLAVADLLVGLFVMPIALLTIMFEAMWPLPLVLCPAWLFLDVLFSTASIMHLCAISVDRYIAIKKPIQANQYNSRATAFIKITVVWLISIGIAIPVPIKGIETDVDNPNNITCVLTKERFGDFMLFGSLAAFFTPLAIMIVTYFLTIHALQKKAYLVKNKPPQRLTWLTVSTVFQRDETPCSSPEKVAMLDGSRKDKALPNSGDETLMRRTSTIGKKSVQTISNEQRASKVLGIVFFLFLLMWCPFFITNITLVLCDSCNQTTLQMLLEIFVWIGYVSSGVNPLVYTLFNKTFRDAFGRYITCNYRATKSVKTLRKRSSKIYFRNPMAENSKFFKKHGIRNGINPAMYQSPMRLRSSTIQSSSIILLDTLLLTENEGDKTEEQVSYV
T6 sequence (Q9Y5N1 whole entry): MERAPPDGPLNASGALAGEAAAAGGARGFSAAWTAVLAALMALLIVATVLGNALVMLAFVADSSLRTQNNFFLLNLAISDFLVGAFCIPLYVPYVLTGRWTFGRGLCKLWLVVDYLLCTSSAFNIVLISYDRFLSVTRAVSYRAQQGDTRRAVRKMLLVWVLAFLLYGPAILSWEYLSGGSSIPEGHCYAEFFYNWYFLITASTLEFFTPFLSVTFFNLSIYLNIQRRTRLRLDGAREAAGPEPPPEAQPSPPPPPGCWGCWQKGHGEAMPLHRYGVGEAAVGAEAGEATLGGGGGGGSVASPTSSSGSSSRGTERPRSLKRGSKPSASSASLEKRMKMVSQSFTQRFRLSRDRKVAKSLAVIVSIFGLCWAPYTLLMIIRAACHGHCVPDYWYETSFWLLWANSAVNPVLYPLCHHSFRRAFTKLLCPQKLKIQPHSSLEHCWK
T2 sequence (P35367 whole entry): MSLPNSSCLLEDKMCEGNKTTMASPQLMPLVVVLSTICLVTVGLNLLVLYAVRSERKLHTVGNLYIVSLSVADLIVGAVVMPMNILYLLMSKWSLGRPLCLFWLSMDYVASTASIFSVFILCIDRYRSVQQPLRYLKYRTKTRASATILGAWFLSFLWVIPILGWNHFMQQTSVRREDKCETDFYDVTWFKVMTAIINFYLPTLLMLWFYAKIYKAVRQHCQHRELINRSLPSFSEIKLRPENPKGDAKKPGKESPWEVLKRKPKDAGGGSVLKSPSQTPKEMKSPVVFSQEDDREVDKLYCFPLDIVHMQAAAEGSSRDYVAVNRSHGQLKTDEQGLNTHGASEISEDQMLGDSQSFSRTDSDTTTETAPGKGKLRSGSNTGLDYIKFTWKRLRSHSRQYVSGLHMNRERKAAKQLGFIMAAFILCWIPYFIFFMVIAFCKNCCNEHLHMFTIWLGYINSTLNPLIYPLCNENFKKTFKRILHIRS
T1 sequence (Q9H3N8 whole entry): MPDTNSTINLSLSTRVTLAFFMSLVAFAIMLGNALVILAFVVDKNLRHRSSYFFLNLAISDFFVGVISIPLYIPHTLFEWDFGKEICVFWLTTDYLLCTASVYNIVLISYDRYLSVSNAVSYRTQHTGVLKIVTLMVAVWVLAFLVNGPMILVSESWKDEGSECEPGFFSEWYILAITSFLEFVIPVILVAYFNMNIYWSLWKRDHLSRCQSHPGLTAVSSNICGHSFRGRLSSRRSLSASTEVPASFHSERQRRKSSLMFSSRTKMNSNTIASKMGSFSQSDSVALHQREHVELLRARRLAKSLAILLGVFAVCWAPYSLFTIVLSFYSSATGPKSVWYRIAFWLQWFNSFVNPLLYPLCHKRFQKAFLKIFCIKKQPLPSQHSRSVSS
T4 sequence (P25021 whole entry): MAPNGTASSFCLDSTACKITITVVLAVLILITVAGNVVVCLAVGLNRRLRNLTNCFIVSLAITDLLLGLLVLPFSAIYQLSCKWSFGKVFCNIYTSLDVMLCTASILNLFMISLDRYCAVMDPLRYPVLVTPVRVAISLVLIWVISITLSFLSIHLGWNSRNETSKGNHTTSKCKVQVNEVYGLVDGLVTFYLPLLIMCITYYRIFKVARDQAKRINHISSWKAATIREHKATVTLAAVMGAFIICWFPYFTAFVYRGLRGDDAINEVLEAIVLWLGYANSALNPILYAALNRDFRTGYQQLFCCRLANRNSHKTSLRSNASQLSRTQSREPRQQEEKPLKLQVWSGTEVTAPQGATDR
T7 sequence (P28335 33-458): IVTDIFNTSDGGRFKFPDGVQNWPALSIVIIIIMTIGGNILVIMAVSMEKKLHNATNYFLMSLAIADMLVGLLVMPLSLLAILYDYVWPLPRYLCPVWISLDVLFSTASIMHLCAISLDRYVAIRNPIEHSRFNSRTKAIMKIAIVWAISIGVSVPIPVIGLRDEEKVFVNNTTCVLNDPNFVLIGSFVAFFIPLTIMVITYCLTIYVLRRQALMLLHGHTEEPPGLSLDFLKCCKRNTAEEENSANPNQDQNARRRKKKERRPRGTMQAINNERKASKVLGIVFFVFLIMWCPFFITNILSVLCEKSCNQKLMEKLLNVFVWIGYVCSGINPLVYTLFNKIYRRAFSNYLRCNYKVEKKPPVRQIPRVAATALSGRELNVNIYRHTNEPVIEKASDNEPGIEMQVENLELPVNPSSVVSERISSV
Chain of D2 dopaminergic receptor (P14416 whole entry): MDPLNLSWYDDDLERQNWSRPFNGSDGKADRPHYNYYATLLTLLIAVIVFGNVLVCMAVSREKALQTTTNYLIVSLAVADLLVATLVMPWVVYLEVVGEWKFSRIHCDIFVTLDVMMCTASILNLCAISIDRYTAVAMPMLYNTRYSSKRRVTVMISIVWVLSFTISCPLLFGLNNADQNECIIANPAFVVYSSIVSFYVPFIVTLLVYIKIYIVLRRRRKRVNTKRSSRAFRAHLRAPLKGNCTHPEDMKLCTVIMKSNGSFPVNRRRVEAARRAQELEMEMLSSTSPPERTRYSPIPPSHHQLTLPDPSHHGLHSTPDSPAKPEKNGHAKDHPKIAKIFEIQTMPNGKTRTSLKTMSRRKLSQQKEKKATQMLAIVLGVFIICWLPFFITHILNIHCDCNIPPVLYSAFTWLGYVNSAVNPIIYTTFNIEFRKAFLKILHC
T5 sequence (P28223 whole entry): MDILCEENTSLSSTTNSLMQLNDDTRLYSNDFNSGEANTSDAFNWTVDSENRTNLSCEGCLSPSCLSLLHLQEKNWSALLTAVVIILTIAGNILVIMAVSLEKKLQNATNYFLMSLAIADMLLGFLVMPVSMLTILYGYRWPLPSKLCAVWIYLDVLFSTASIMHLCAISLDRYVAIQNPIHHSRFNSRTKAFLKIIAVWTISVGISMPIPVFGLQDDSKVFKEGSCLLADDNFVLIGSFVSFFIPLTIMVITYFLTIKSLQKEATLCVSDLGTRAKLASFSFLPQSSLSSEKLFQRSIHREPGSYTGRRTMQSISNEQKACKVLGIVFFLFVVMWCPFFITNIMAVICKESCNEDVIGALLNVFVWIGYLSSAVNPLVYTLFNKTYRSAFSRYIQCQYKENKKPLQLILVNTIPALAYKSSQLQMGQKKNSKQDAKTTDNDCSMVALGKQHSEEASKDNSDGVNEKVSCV

Take `CC[C@@H](CO)NC(=O)[C@@H]1C=C2c3cccc4c3c(cn4C)C[C@H]2N(C)C1` [Methysergide]: the “plasma protein extravasation as EvansBlue extinction at 600nm” value (shortened to “plasma protein extravasation”) in test [1] (0,1 µg/kg i.v.) was 0,265 ± 0,034; in test [1] (1 µg/kg i.v.), 0,250 ± 0,027; in test [1] (10 µg/kg i.v.), 0,228 ± 0,064; in test [1] (100 µg/kg i.v.), 0,189 ± 0,026.
Turning to `CN1CCC(=C2c3ccccc3Sc3ccccc32)CC1` [Pimethixene, 9-(N-methyl-piperidyliden-4)-thioxanthene], the pKi values entry in [2] (H4), in test [3] (H2) and in test [4] (H3) was “low activity” each time. Moreover, the affinity entry is on record as “no affinity” in test [2] (human H4 receptor, result in words); “high affinity” at human H1 receptor (human H1 receptor, result in words); “no affinity” in test [3] (human H2 receptor, result in words); “no affinity” in test [4] (human H3 receptor, result in words). Moreover, the Ki on human H1 receptor (H1, read-out: pKi values (converted)) was 0.00794 nM; on human 5-HT2B receptor it was 0.0251 nM; on M1 muscarinic receptor it was 2.51 nM; at D2 dopaminergic receptor, 6.31 nM; on 5-HT2A receptor, 0.0631 nM; on 5-HT2C receptor, 2.51 nM. Moreover, in [5], the Ki is 25.1 nM. Moreover, at human 5-HT2B receptor (selectivity, result in words), the “affinity for the 5-HT2B receptor versus 5HT2C receptor” value is listed as “selective affinity”. For the same compound, the “plasma protein extravasation” value in test [1] (0,01 µg/kg i.v.) is reported as 0,157 ± 0,040; in test [1] (0,1 µg/kg i.v.), 0,126 ± 0,028; in test [1] (0,001 µg/kg i.v.), 0,269 ± 0,022.
Compound `CN1CCC(=C2c3ccccc3CCc3sccc32)CC1` [Pizotifen] showed a Ki at human 5-HT2B receptor of 2.88 nM. Moreover, the “plasma protein extravasation” value is on record as 0,404 ± 0,025 in test [1] (1 µg/kg i.v.), 0,144 ± 0,035 in test [1] (10 µg/kg i.v.) and 0,230 ± 0,018 in test [1] (100 µg/kg i.v.).
Take `Clc1cccc(N2CCNCC2)c1` [mCPP, m-chlorophenylpiperazine]: the extinction in [1] (positive control: mCPP agonist alone, 1µg/kg, negative control 0,130 ± 0,024) was 0,300 ± 0,038.
